Like-named read-outs stand apart in the source and are kept apart here. Some results are limits rather than exact numbers.

Assay [1] has as its target T1, Serotonin 5-HT2B receptor (Homo sapiens, UniProt P41595).
T1 construct: expressed in transfected cells; host or cells: CHO-K1
Briefly: IPOne HTRF assay, agonist and antagonist mode. It counts as cell-based. The method, then:
(§1) Antagonist and agonist activities were determined using an IPOne […] HTRF assay. The assay was prepared as follows: CHO-K1 cells expressing human recombinant Adrenergic α1A, Serotonin 5-HT2A, and 5-HT2B receptors grown to mid-log phase in culture media without antibiotics were detached with PBS-EDTA, centrifuged and resuspended in medium without antibiotics buffer. 20,000 cells were distributed in a 96 well plate and incubated overnight at 37° C. with 5% CO2.
(§2) To analyze agonist activity, the medium was removed and 20 μl of assay buffer plus 20 μl of test compound or reference agonist were added in each well. The plate was incubated for 60 min. at 37° C. with 5% CO2. EC50 values were used to determine whether a compound acted as an agonist.
(§3) To analyze antagonist activity, 20 μl of test compound or reference antagonist was added and the plate is incubated for 15 min. at 37° C. in a humidified atmosphere of 95% air with 5% CO2, then 20 μl of reference agonist at a final concentration corresponding to the historical EC80 is added. The plate is incubated for 60 min. at 37° C. with 5% CO2. IP1-D2 reagent and anti-IP1 cryptate reagents are then dispensed in the wells and IP1 concentrations are then measured following the manufacturer recommendations. IC50 values were used to determine whether a compound acted as an antagonist.

The target of assay [2] is T2, Adrenergic α1A receptor (Homo sapiens, UniProt P35348).
T2 construct: expressed in transfected cells; host or cells: CHO-K1
T2 sequence (P35348 1-466): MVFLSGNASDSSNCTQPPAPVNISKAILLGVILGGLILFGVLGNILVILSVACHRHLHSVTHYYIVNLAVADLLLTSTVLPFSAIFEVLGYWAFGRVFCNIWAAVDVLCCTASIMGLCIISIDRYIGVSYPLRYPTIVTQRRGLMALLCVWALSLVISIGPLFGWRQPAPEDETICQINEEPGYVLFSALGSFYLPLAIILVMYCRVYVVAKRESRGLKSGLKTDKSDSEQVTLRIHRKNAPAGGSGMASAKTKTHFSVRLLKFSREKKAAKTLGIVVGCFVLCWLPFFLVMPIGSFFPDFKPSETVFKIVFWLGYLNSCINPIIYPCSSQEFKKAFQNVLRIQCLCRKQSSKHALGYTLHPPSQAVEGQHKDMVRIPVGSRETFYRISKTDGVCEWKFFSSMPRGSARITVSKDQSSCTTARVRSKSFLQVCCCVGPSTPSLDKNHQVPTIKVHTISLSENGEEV
The assay is described as follows: IPOne HTRF assay, agonist and antagonist mode. In kind it is cell-based. As for the experimental part:
as §1, §2, §3
A general note: TR-FRET usually uses a lanthanide donor and a delayed reading to cut background.

In assay [3] the target is T3, Serotonin 5-HT2A receptor (Homo sapiens, UniProt P28223).
T3 construct: expressed in transfected cells; host or cells: CHO-K1
T3 sequence (P28223 whole entry): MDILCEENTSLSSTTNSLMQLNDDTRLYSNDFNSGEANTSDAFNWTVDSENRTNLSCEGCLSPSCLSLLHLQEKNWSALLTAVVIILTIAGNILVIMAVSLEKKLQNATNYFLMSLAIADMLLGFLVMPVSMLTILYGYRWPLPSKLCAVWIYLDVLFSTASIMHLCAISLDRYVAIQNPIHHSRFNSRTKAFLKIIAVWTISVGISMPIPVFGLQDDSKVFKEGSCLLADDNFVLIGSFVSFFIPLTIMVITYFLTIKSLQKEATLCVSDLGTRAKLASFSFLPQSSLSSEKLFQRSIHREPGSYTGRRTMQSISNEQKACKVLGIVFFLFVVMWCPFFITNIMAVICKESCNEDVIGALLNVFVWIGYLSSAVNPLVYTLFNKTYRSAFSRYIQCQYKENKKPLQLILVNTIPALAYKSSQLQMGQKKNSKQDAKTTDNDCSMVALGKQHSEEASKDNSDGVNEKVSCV
Briefly: IPOne HTRF assay, agonist and antagonist mode. It counts as cell-based. The method, then: as §1, §2, §3

Assay [4] has as its target T4, Serotonin 5-HT1A receptor (Homo sapiens, UniProt P08908).
T4 sequence (P08908 1-422): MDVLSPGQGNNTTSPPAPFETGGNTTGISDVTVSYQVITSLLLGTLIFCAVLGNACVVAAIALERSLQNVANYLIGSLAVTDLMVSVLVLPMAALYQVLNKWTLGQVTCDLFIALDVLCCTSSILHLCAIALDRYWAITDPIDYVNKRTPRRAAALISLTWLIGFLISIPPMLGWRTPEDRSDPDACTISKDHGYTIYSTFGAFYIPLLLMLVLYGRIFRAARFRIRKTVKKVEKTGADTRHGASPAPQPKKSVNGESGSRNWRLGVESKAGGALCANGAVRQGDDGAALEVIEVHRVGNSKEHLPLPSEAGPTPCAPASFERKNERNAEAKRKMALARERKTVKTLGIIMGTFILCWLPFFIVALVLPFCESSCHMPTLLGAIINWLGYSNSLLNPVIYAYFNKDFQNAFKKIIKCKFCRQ
The assay is described as follows: GTPγS Scintillation Proximity Assay, agonist and antagonist mode. In kind it is biochemical. As for the experimental part:
Antagonist and agonist activities were determined using a GTPγS Scintillation Proximity Assay. The assay was prepared as follows: Membrane extracts were prepared from recombinant human Dopamine D2L, D3; Serotonin 5-HT1A, 5-HT1B, 5-HT1D and 5-HT1F receptors.
Samples were tested by proprietary biological assays by Ogeda S. A., Euroscreen FAST Business Unit, Rue Adrienne Bolland, 47 B-6041 Gosselies, Belgium. Each protein assay was prepared using the following conditions.
5-HT1A • Assay buffer: 20 mM HEPES pH 7.4; 100 mM NaCl, 10 μg/ml saponin, 3 mM MgCl2, 0.1% protease-free BSA; • Membranes: recombinant 5-HT1A membrane extracts thawed on ice and diluted in assay buffer to give 1 mg/ml (10 μg/well) and kept on ice; • GDP: diluted in assay buffer to give a 3 μM final assay concentration; • Beads: PVT-WGA (Perkin Elmer, RPNQ001), diluted in assay buffer at 50 mg/ml (0.5 mg/well); and • GTPγ^35S: (PerkinElmer NEG030X), diluted in assay buffer to give 0.1 nM;
Membranes were mixed with GDP (volume:volume 1:1) and incubated for at least 15 min on ice. In parallel, GTPγ[^35S] is mixed with the beads (volume:volume 1:1) just before starting the reaction.
To determine agonist activity, the following reagents were added in the wells of an Optiplate (Perkin Elmer): 50 μL of test or reference ligand, 10 μL of assay buffer, 20 μl of the membranes:GDP mix, and 20 μL of the GTPγ[^35S]:beads mix. EC50 values were used to determine whether a compound acted as an agonist.
To determine antagonist activity, the following reagents were added in the wells of an Optiplate (Perkin Elmer): 50 μL of test or reference ligand, 20 μL of the membranes:GDP mix, then the plate is incubated 15 minutes at room temperature. After incubation, 10 μL of reference agonist at historical EC80 (final concentration) was added, followed by 20 μL of the GTPγ[^35S]:beads mix.
The plates were covered with a top seal, mixed on an orbital shaker for 2 min, and then incubated for 1 hour at room temperature. Then the plates were centrifuged for 10 min at 2000 rpm, incubated at room temperature 1 hour and counted for 1 min/well with a PerkinElmer TopCount reader. IC50 values were used to determine whether a compound acted as an antagonist.
In general terms: In a scintillation proximity assay essentially only radioactivity close to the scintillant gives light.

The mark [5] stands for this setting: CHO-K1 cells, vs reference agonist at EC80, read-out: Antagonist Activity (IC50), 5-HT2B.
Where [6] appears, read: antagonist mode, bound stated, read-out: IC50 value for the Serotonin 5-HT2B receptor.
Setting [7] is: Antagonist Activity (IC50), α1A, CHO-K1 cells, vs reference agonist at EC80.
[8] abbreviates: IC50 value for the Adrenergic α1A receptor, antagonist mode, bound stated.
[9] abbreviates: CHO-K1 cells, vs reference agonist at EC80, read-out: Antagonist Activity (IC50), 5-HT2A.
[10] abbreviates: antagonist mode, bound stated, read-out: IC50 value for the Serotonin 5-HT2A receptor.
Where [11] appears, read: antagonist mode, bound stated, read-out: IC50 value for the Serotonin 5-HT1A receptor.
Where [12] appears, read: membrane extracts, vs reference agonist at EC80, read-out: Antagonist Activity (IC50), 5-HT1A.
Where [13] appears, read: CHO-K1 cells, read-out: Agonist Activity (EC50), 5-HT2A.
[14] abbreviates: agonist mode, bound stated, read-out: EC50 value for the Serotonin 5-HT2A receptor.

T1 sequence (P41595 whole entry): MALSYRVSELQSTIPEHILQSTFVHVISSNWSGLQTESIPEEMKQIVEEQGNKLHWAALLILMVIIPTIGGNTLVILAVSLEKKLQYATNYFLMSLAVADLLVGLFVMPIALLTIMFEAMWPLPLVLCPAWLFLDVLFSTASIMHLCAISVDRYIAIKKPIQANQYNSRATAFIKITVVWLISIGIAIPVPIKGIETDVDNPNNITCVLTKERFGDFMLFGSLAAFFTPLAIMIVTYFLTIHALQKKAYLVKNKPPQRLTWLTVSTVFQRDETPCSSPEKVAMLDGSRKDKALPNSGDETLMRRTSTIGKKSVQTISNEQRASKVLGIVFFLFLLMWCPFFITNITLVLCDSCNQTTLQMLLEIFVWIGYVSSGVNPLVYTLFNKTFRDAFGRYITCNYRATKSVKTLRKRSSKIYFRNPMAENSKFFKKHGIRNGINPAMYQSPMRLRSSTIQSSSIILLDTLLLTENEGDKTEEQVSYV

`CCN(CC(F)(F)F)C(=O)N[C@H]1C[C@@H]2c3cccc4[nH]c(C5CC5)c(c34)C[C@H]2N(C)C1` [Compound A17H, 3-((6aR,9S,10aR)-5-cyclopropyl-7-methyl-4,6,6a,7,8,9,10,10a-octahydroindolo[4,3-fg]quinolin-9-yl)-1-ethyl-1-(2,2,2-trifluoroethyl)urea]: the IC50 in assay [1] (setting [5]) is 25 nM; in assay [1] (setting [6]), < 1000 nM; in assay [2] (setting [7]), 13 nM; in assay [2] (setting [8]), < 1000 nM; in assay [3] (setting [9]), 11 nM; in assay [3] (setting [10]), < 1000 nM. Also, the figures for the 50% inhibitory concentration (IC50) in assay [4] (setting [11]) and in assay [4] (setting [12]) were < 1000 nM and 590 nM, respectively.
As to `CCN(CC)C(=O)N[C@H]1C[C@@H]2c3cccc4[nH]c(Br)c(c34)C[C@H]2N(C)C1` [Compound A8H, 3-((6aR,9S, 10aR)-5-bromo-7-methyl-4,6,6a,7,8,9,10,10a-octahydroindolo[4,3-fg]quinolin-9-yl)-1,1-diethylurea], the half-maximal inhibitory concentration (IC50) in assay [1] (setting [5]) is 52 nM; in assay [2] (setting [7]), 14 nM; in assay [2] (setting [8]) it was < 1000 nM; in assay [3] (setting [9]) it was 14 nM; in assay [3] (setting [10]), < 1000 nM; in assay [4] (setting [11]), < 1000 nM. The IC50 in assay [4] (setting [12]) turned out to be 160 nM. In addition, the EC50 is < 1000 nM in assay [1] (agonist mode, bound stated); 6.9 nM in assay [3] (setting [13]); < 1000 nM in assay [3] (setting [14]); < 1000 nM in assay [4] (agonist mode, bound stated, read-out: EC50 value for the Serotonin 5-HT1A receptor); 31 nM in assay [4] (membrane extracts, read-out: Agonist Activity (EC50), 5-HT1A).
Take `CCN(CC)C(=O)N[C@H]1C[C@@H]2c3cccc4[nH]c(C(F)(F)F)c(c34)C[C@H]2N(C)C1` [Compound A9H, 1,1-diethyl-3-((6aR,9S,10aR)-7-methyl-5-(trifluoromethyl)-4,6,6a,7,8,9,10,10a-octahydroindolo[4,3-fg]quinolin-9-yl)urea]: the IC50 in assay [1] (setting [5]) is 23 nM; in assay [1] (setting [6]), < 1000 nM; in assay [2] (setting [7]), 9.1 nM; in assay [2] (setting [8]), < 1000 nM; in assay [3] (setting [9]) it was 110 nM; in assay [3] (setting [10]), < 1000 nM. Further, the EC50 was 12 nM in assay [3] (setting [13]) and < 1000 nM in assay [3] (setting [14]).
`CC[C@@H](CO)NC(=O)[C@@H]1C[C@@H]2c3cccc4c3c(c(C3CC3)n4C)C[C@H]2N(C)C1` [Compound D13H, (6aR,9R,10aR)-5-cyclopropyl-N—((S)-1-hydroxybutan-2-yl)-4,7-dimethyl-4,6,6a,7,8,9,10,10a-octahydroindolo[4,3-fg]quinoline-9-carboxamide]: the concentration for half-maximal inhibition (IC50) in assay [1] (setting [5]) was 3.4 nM; in assay [1] (setting [6]), < 1000 nM; in assay [3] (setting [9]), 74 nM; in assay [3] (setting [10]) it was < 1000 nM.
For the molecule `CCN(CC(F)(F)F)C(=O)N[C@H]1C[C@@H]2c3cccc4[nH]c(C(F)(F)F)c(c34)C[C@H]2N(C)C1` [Compound A16H, 1-ethyl-3-((6aR,9S,10aR)-7-methyl-5-(trifluoromethyl)-4,6,6a,7,8,9,10,10a-octahydroindolo[4,3-fg]quinolin-9-yl)-1-(2,2,2-trifluoroethyl)urea], the IC50 was 16 nM in assay [1] (Antagonist Activity (IC50), 5-HT2B, CHO-K1 cells, vs reference agonist at EC80); < 1000 nM in assay [1] (IC50 value for the Serotonin 5-HT2B receptor, antagonist mode, bound stated); 15 nM in assay [2] (CHO-K1 cells, vs reference agonist at EC80, read-out: Antagonist Activity (IC50), α1A); < 1000 nM in assay [2] (setting [8]); 16 nM in assay [3] (Antagonist Activity (IC50), 5-HT2A, CHO-K1 cells, vs reference agonist at EC80); < 1000 nM in assay [3] (IC50 value for the Serotonin 5-HT2A receptor, antagonist mode, bound stated).

The IC50 is the midpoint of a concentration-inhibition curve. One may read the EC50 as the concentration that produces a half-maximal response.

The values are drawn from patent US10815235B2, “Polycyclic compounds and uses thereof” (priority 2017, dated 2020).
